The structures appear in SMILES notation.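 In this assay, cells in 96-well plates receive the compound at five concentrations for 48 hours. Endpoints are linearly interpolated between the surrounding concentrations. GI50 = concentration required for 50% inhibition of growth. TGI denotes the concentration required for complete inhibition of growth.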

Among the test systems are 786-0 renal; ACHN renal; HCT-116 colon; HT29 colon; KM12 colon; SF-268 CNS; SK-MEL-2 melanoma; SNB-75 CNS; SR leukemia; UO-31 renal.
Assay in all cases: NCI anticancer screen, dose series, 48 h

With `Cc1nc2sc(C(=O)Nc3cccc4ccccc34)c(N)c2cc1C(=O)/C=C/c1ccccc1`, the GI50 in the experiment with 786-0 renal is 250 nM; in the experiment with ACHN renal it was 304 nM; with HCT-116 colon, 174 nM; with HT29 colon, 173 nM; in the experiment with KM12 colon, 368 nM; in the experiment with SF-268 CNS, 1150 nM. Also, the GI50 in the experiment on SK-MEL-2 melanoma is 501 nM; with SNB-75 CNS, 232 nM; in the experiment on SR leukemia, 164 nM; in the experiment on UO-31 renal, 351 nM. Besides, the TGI is 979 nM in the experiment with 786-0 renal; 1250 nM with ACHN renal; 631 nM with HCT-116 colon; 1060 nM in the experiment with HT29 colon; 1250 nM with KM12 colon; above 32.4 µM in the experiment with SF-268 CNS. For the same compound, the TGI was above 39 µM in the experiment with SK-MEL-2 melanoma, above 10.4 µM in the experiment with SNB-75 CNS, above 10.1 µM with SR leukemia and 1030 nM in the experiment with UO-31 renal.

For `Cn1c(=O)c(Oc2ccc(F)cc2F)cc2cnc(NC(CO)CO)nc21`, the GI50 in the experiment on 786-0 renal, in the experiment with ACHN renal, in the experiment on HCT-116 colon, in the experiment with HT29 colon, with KM12 colon and in the experiment with SF-268 CNS was above 25000 nM in each case. For the same compound, the GI50 in the experiment on SK-MEL-2 melanoma, in the experiment on SNB-75 CNS, with SR leukemia and in the experiment with UO-31 renal was above 25000 nM throughout. In addition, the TGI is above 25000 nM in the experiment with 786-0 renal; above 25000 nM in the experiment on ACHN renal; above 25000 nM with HCT-116 colon; above 25000 nM in the experiment on HT29 colon; above 25000 nM with KM12 colon; above 25 µM in the experiment with SF-268 CNS. Moreover, the TGI is above 25 µM with SK-MEL-2 melanoma, above 25 µM with SNB-75 CNS, above 25 µM with SR leukemia and above 25000 nM in the experiment on UO-31 renal.

These data come from PubChem BioAssay (NCI).
